Read-outs that look alike come from different tables or passages of the source.
What was measured:
human nSMase2 = human nSMase2 (Homo sapiens (Human), UniProt Q9NY59); assay: Human nSMase2 fluorescence-based activity assay; type: biochemical
Source text: Figuera-Losada, et al. Lysate of cells expressing recombinant nSMase2 is used to catalyze the hydrolysis of sphingomyelin (SM) to ceramide and phosphorylcholine.

[1] = Phase I metabolic stability in mouse liver microsomes; type: in vitro ADME; conditions: 37° C.
Method: (§1) Phase I metabolic stability in both mouse and human liver microsomes was performed as described previously. Rais et al. Briefly, compounds are spiked in liver microsomes (mouse, human) and incubated in an orbital shaker at 37° C. […] Compound disappearance is monitored over time using LC/MS/MS.

[2] = Phase I metabolic stability in human liver microsomes; type: in vitro ADME; conditions: 37° C.
Method: as §1

rat astrocytes = assay: Inhibition of exosome release from primary astrocytes in vitro; type: cell-based; conditions: 0.3-10 μM, 2 h after treatment, vs DMSO (0.02%)
Method: The effect of nSMase2 inhibitors on the manufacturing and release of ceramide rich exosomes from primary astrocytes was investigated as previously described. Dickens, et al. Briefly, rat astrocytes are seeded onto 6-well plates at a density of 20,000 cells/well. Twenty-four hours after seeding, astrocytes are washed with PBS and the medium changed to media without FBS. Absence of FBS mimics a trophic factor withdrawal stimulus causing the release of exosomes via a nSMase2-dependent pathway. Astrocytes are then treated with nSMase2 inhibitors at concentrations in the range 0.03-30 μM. DMSO (0.02%) is used as control. Two hours after treatment, media is collected and centrifuged at 2700 g for 15 min (4° C.). Supernatant is further centrifuged at 10,000 g for 15 min (4° C.) to remove large particles such as apoptotic bodies. Astrocyte-derived extracellular vesicles (EVs) are isolated via ultracentrifugation at 100,000 g for 3 h at 4° C. Fractions containing EV are washed twice with 5 ml PBS and the final pellet resuspended in PBS. This isolation procedure results in the isolation of EVs with a narrow size range and protein markers consistent with exosomes. Dickens, et al. The number of EVs is quantified using ZetaView Nanoparticle Tracker (Particle Metrix GmBH, Meerbusch, Germany) and the corresponding ZetaVeiw software (8.03.04.01). Nanosphere size standard 100 nm (Thermo Scientific) is used to calibrate the instrument prior to sample readings. For each sample 1 mL of the supernatant is injected into the sample-carrier cell and the particle count measured at 5 positions, with 2 cycles of reading per position. Cells are washed with PBS after every sample. Mean concentration of EVs/mL (±SEM) is calculated from 6 replicates. This screening assay is reliable with a Z′=0.75.
Referring now to FIG. 4A and FIG. 4B, the ability of compound 38 and several of its analogs to inhibit exosome release in vitro was evaluated as previously described. […] Two hours after treatment, exosomes were isolated from the media and quantified using ZetaView Nanoparticle Tracker. The mean concentration of exosomes (EVs/mL±SEM) was calculated from 6 replicate experiments (see FIG. 4). […] Baseline exosome release can be variable between experiments; as a result, inhibition is always compared relative to vehicle treatment within the same experiment. Structures of compounds with their corresponding IC50s are provided in the second row of FIG. 4.

[3] = inhibition of nSMase2, IC50 category A-D, read-out: Activity*
[4] = inhibition of nSMase2, read-out: IC50

human nSMase2, sequence (Q9NY59 whole entry): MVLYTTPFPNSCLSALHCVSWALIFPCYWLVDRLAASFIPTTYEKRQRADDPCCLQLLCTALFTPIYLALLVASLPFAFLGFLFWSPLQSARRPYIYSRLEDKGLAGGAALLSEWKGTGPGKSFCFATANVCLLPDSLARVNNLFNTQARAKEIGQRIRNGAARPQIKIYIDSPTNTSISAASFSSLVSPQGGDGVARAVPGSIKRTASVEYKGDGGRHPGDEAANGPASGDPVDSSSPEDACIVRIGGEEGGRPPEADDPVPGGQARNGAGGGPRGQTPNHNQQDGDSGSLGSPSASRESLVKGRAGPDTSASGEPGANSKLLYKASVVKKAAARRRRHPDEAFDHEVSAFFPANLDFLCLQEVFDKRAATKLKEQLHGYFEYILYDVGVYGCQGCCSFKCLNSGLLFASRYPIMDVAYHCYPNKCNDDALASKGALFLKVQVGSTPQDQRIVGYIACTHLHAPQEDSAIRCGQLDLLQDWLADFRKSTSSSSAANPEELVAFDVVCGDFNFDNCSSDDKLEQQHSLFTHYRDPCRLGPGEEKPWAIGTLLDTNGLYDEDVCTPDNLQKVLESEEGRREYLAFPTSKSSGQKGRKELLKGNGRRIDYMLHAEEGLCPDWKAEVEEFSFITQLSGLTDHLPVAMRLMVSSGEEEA

Row | IC50 (human nSMase2; [3]) [µM] | IC50 (human nSMase2; [4]) [µM] | Compound | also measured
1 | > 100 | – | COc1ccc(-n2cnc3c(N4CC[C@@H](NC(C)=O)C4)nc(C)nc32)cc1OC [2-PROV] | –
2 | > 100 | – | COc1ccc(-n2c(C)nc3c(N4CC[C@@H](NC(C)=O)C4)nc(C)nc32)cc1OC [3-PROV] | –
3 | > 100 | – | COc1ccc(-c2c(C)nn3c(N4CC[C@@H](NC(C)=O)C4)cc(C)nc23)cc1OC [4-PROV] | –
4 | > 100 | – | COc1ccc(-n2c(C)nc3c(N4CC[C@@H](NC(C)=O)C4)ncnc32)cc1OC [5-PROV] | –
5 | > 100 | – | COc1ccc(-n2cnc3c(N4CC[C@@H](NC(C)=O)C4)ncnc32)cc1OC [6-PROV] | –
6 | > 100 | – | COc1ccc(-c2c(C)oc3c(N4CC[C@@H](NC(C)=O)C4)cc(C)nc23)cc1OC [8-PROV] | –
7 | – | > 100 | CC(=O)N[C@@H]1CCN(c2cc(Cl)nn3cc(C)nc23)C1 [9-PROV] | –
8 | > 100 | – | COc1ccc(-n2ncc3c(N4CC[C@@H](NC(C)=O)C4)nc(C)nc32)cc1OC [10-PROV] | –
9 | – | > 100 | COc1ccc(-c2c(C)nc3c(N4CC[C@@H](NC(C)=O)C4)cc(Cl)nn23)cc1 [11-PROV] | –
10 | > 100 | – | COc1ccc(-c2c3nc(C)nc(N4CC[C@@H](NC(C)=O)C4)c3nn2C)cc1OC [12-PROV] | –
11 | > 100 | – | COc1ccc(-c2nn(C)c3c(N4CC[C@@H](NC(C)=O)C4)nc(C)nc23)cc1OC [13-PROV] | –
12 | – | > 100 | COc1cccc(-c2c(C)nc3c(N4CC[C@@H](NC(C)=O)C4)cc(Cl)nn23)c1 [14-PROV] | –
13 | – | > 10 | CC(=O)N[C@@H]1CCN(c2ccnn3cc(C)nc23)C1 [15-PROV] | –
14 | – | > 100 | CC(=O)N[C@@H]1CCN(c2cc(Cl)nn3c(-c4ccc(F)cc4)c(C)nc23)C1 [18-PROV] | –
15 | – | > 100 | CC(=O)Nc1cccc(-c2c(C)nc3c(N4CC[C@@H](NC(C)=O)C4)cc(Cl)nn23)c1 [19-PROV] | –
16 | – | > 1 | COc1cccc(-c2c(C)nc3c(N4CC[C@@H](NC(C)=O)C4)cc(C)nn23)c1 [20-PROV] | –
17 | – | > 1 | CC(=O)Nc1cccc(-c2c(C)nc3c(N4CC[C@@H](NC(C)=O)C4)cc(C)nn23)c1 [22-PROV] | –
18 | – | > 10 | CC(=O)N[C@@H]1CCN(c2cc(C)nn3c(I)c(C)nc23)C1 [23-PROV] | –
19 | > 100 | – | COc1ccc(-c2csc3c(N4CC[C@@H](NC(C)=O)C4)nc(Cl)nc23)cc1OC [24-PROV] | –
20 | > 100 | – | COc1ccc(-c2c(C)sc3c(N4CC[C@@H](NC(C)=O)C4)nc(Cl)nc23)cc1OC [25-PROV] | –
21 | > 100 | – | COc1ccc(-c2scc3c(N4CC[C@@H](NC(C)=O)C4)nc(Cl)nc23)cc1OC [26-PROV] | –

Row | IC50 (human nSMase2; [3]) [µM] | IC50 (human nSMase2; [4]) [µM] | Compound | also measured
22 | > 100 | – | COc1ccc(-c2csc3c(N4CC[C@@H](NC(C)=O)C4)ncnc23)cc1OC [27-PROV] | –
23 | > 100 | – | COc1ccc(-c2c(C)sc3c(N4CC[C@@H](NC(C)=O)C4)ncnc23)cc1OC [28-PROV] | –
24 | > 100 | – | COc1ccc(-c2c(C)sc3c(N4CC[C@@H](NC(C)=O)C4)nc(C)nc23)cc1OC [29a-PROV] | –
25 | > 100 | – | COc1ccc(-c2scc3c(N4CC[C@@H](NC(C)=O)C4)nc(C)nc23)cc1OC [29b-PROV] | –
26 | > 100 | – | COc1ccc(-c2csc3c(N4CC[C@@H](NC(C)=O)C4)nc(C)nc23)cc1OC [30-PROV] | –
27 | > 100 | – | COc1ccc(-c2c(C)nn3c(N4CC[C@@H](NC(C)=O)C4)nc(C)nc23)cc1OC [36-PROV] | –
28 | – | > 1 | COc1cc(N2CC[C@@H](NC(C)=O)C2)c2nc(C)c(-c3ccc(OC)c(OC)c3)n2n1 [38-PROV] | –
29 | – | ≤ 1 | CC(=O)N[C@@H]1CCN(c2cc(C)nn3c(-c4ccc5c(c4)OCO5)c(C)nc23)C1 [40-PROV] | –
30 | – | > 1 | CC(=O)N[C@@H]1CCN(c2cc(C)nn3c(-c4cccc(S(C)(=O)=O)c4)c(C)nc23)C1 [42-PROV] | –
31 | – | ≤ 1 | CC(=O)N[C@@H]1CCN(c2cc(C)nn3c(-c4ccc(O)cc4)c(C)nc23)C1 [47-PROV] | –
32 | – | > 1 | CC(=O)N[C@@H]1CCN(c2cc(C)nn3c(C)c(C)nc23)C1 [48-PROV] | –
33 | – | – | CC(=O)N[C@@H]1CCN(c2cc(C)nn3c(-c4cccs4)c(C)nc23)C1 [compound 13, (R)—N-(1-(2,6-dimethyl-3-(thiophen-2-yl)imidazo[1,2-b]pyridazin-8-yl)pyrrolidin-3-yl)acetamide] | Mouse Liver Microsome (+) NADPH % Remaining at 60 min [1]: 28 ± 2%; Human Liver Microsome (+) NADPH Remaining at 60 min [2]: 50 ± 4%
34 | – | – | CC(=O)N[C@@H]1CCN(c2cc(C)nn3c(-c4ccc(OC(F)(F)F)cc4)c(C)nc23)C1 [compound 17, (R)—N-(1-(2,6-dimethyl-3-(4-(trifluoromethoxy)phenyl)imidazo[1,2-b]pyridazin-8-yl)pyrrolidin-3-yl)acetamide] | Mouse Liver Microsome (+) NADPH % Remaining at 60 min [1]: 72 ± 6%; Human Liver Microsome (+) NADPH Remaining at 60 min [2]: 114 ± 4%
35 | – | – | COc1ccc(-c2c(C)nc3c(N4CC[C@@H](NS(=O)(=O)c5ccc(C)cc5)C4)cc(C)nn23)cc1OC [compound 22, (R)—N-(1-(3-(3,4-dimethoxyphenyl)-2,6-dimethylimidazo[1,2-b]pyridazin-8-yl)pyrrolidin-3-yl)-4-methylbenzenesulfonamide] | Mouse Liver Microsome (+) NADPH % Remaining at 60 min [1]: 2 ± 1%; Human Liver Microsome (+) NADPH Remaining at 60 min [2]: 29 ± 1%
36 | – | – | COc1ccc(-c2c(C)nc3c(N4CC[C@@H](NS(=O)(=O)c5ccc(C(C)=O)cc5)C4)cc(C)nn23)cc1OC [compound 23, (R)-4-acetyl-N-(1-(3-(3,4-dimethoxyphenyl)-2,6-dimethylimidazo[1,2-b]pyridazin-8-yl)pyrrolidin-3-yl)benzenesulfonamide] | Mouse Liver Microsome (+) NADPH % Remaining at 60 min [1]: 5 ± 1%; Human Liver Microsome (+) NADPH Remaining at 60 min [2]: 12 ± 3%
37 | – | – | COc1ccc(-c2c(C)nc3c(N4CC[C@@H](NS(=O)(=O)c5ccccc5)C4)cc(C)nn23)cc1OC [compound 28, (R)—N-(1-(3-(3,4-dimethoxyphenyl)-2,6-dimethylimidazo[1,2-b]pyridazin-8-yl)pyrrolidin-3-yl)benzenesulfonamide] | Mouse Liver Microsome (+) NADPH % Remaining at 60 min [1]: 20 ± 1%; Human Liver Microsome (+) NADPH Remaining at 60 min [2]: 43 ± 6%
38 | – | – | COc1ccc(-c2c(C)nc3c(N4CC[C@@H](NS(=O)(=O)c5ccc(Cl)cc5)C4)cc(C)nn23)cc1OC [compound 29, (R)-4-chloro-N-(1-(3-(3,4-dimethoxyphenyl)-2,6-dimethylimidazo[1,2-b]pyridazin-8-yl)pyrrolidin-3-yl)benzenesulfonamide] | Mouse Liver Microsome (+) NADPH % Remaining at 60 min [1]: 7 ± 2%; Human Liver Microsome (+) NADPH Remaining at 60 min [2]: 32 ± 6%
39 | – | – | COc1ccc(-c2c(C)nc3c(N4CC[C@@H](NS(=O)(=O)c5ccc(C(F)(F)F)cc5)C4)cc(C)nn23)cc1OC [compound 30, (R)—N-(1-(3-(3,4-dimethoxyphenyl)-2,6-dimethylimidazo[1,2-b]pyridazin-8-yl)pyrrolidin-3-yl)-4-(trifluoromethyl)benzenesulfonamide] | Mouse Liver Microsome (+) NADPH % Remaining at 60 min [1]: 15 ± 5%; exosome release from astrocytes (rat astrocytes): decreased the number of exosomes released from astrocytes in a dose dependent manner; Human Liver Microsome (+) NADPH Remaining at 60 min [2]: 61 ± 3%
40 | – | – | COc1ccc(-c2c(C)nc3c(N4CC[C@@H](NC(=O)C(F)(F)F)C4)cc(C)nn23)cc1OC [compound 35, (R)—N-(1-(3-(3,4-dimethoxyphenyl)-2,6-dimethylimidazo[1,2-b]pyridazin-8-yl)pyrrolidin-3-yl)-2,2,2-trifluoroacetamide] | Mouse Liver Microsome (+) NADPH % Remaining at 60 min [1]: 117 ± 8%; Human Liver Microsome (+) NADPH Remaining at 60 min [2]: 113 ± 8%
41 | – | – | COc1ccc(-c2c(C)nc3c(N4CC[C@@H](NC(=O)C(F)(F)c5ccccc5)C4)cc(C)nn23)cc1OC [compound 37, (R)—N-(1-(3-(3,4-dimethoxyphenyl)-2,6-dimethylimidazo[1,2-b]pyridazin-8-yl)pyrrolidin-3-yl)-2,2-difluoro-2-phenylacetamide] | Mouse Liver Microsome (+) NADPH % Remaining at 60 min [1]: 6 ± 1%; Human Liver Microsome (+) NADPH Remaining at 60 min [2]: 20 ± 2%
42 | – | – | COc1ccc(-c2c(C)nc3c(N4CCCC4)cc(C)nn23)cc1OC [compound 44, 3-(3,4-dimethoxyphenyl)-2,6-dimethyl-8-(pyrrolidin-1-yl)imidazo[1,2-b]pyridazine] | Mouse Liver Microsome (+) NADPH % Remaining at 60 min [1]: 1 ± 0%; exosome release from astrocytes (rat astrocytes): decreased the number of exosomes released from astrocytes in a dose dependent manner; Human Liver Microsome (+) NADPH Remaining at 60 min [2]: 58 ± 4%
